Patent publication US20260234129A1, “NOVEL IMIDAZOLE DERIVATIVE AND USE THEREOF” (PELEMED CO., LTD., priority 2023, published 2026)

Assays:
Test in all cases: scanMax kinase panel (Eurofins)
Type in all cases: binding
HASPIN = target: T1, HASPIN (Homo sapiens, UniProt Q8TF76); settings: read-out: % control
T1 construct: purchased Eurofins scanMax® kinase panel
Experimental: (§1) The following assay method was performed to evaluate the inhibitory activities of a compound according to the present invention with respect to various enzymes. […] The compound was applied to the enzyme at a concentration of 1 μM, dissolved in DMSO, and the % control was determined according to Equation 1 below.
(§2) Here, the positive control refers to a compound corresponding to 0% control, and the negative control refers to a compound corresponding to 100% control.

ERK3 = target: T2, ERK3 (Homo sapiens, UniProt Q16659); settings: ERK3, 1 μM; read-out: % control
T2 construct: purchased Eurofins scanMax® kinase panel
Experimental: as §1, §2

KIT = target: T3, KIT (Homo sapiens, UniProt P10721); settings: read-out: % control
T3 construct: purchased Eurofins
T3 sequence (P10721 26-976): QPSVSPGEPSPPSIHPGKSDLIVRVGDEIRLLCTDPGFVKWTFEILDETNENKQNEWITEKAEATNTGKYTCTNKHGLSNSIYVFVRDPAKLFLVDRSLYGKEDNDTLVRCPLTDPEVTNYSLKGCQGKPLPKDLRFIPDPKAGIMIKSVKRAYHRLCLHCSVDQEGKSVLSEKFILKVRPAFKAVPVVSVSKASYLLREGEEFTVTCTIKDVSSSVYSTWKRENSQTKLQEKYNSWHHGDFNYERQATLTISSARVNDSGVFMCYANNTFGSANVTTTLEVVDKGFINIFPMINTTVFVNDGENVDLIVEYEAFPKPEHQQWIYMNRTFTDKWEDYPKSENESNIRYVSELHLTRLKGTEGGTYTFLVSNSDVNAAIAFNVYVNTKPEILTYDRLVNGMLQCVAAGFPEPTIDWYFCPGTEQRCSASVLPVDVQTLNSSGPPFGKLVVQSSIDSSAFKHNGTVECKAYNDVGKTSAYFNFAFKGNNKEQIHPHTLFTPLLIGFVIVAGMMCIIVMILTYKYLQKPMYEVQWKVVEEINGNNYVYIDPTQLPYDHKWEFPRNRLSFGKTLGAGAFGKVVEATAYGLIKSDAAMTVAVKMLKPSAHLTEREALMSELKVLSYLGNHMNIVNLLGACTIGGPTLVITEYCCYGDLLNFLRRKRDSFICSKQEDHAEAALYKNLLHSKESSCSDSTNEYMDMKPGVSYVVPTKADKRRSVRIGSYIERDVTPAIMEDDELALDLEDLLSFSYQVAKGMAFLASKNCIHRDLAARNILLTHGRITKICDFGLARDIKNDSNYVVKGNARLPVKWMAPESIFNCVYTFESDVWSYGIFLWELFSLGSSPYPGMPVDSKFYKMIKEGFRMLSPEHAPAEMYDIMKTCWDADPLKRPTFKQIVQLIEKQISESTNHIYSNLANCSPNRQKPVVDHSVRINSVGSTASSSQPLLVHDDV
Experimental: as §1, §2

[1] = target: T4, JAK1(JH2domain-pseudokinase) (Homo sapiens, UniProt P23458); settings: read-out: % control
T4 construct: JAK1(JH2domain-pseudokinase); purchased Eurofins
T4 sequence (P23458 583-855 limits assumed): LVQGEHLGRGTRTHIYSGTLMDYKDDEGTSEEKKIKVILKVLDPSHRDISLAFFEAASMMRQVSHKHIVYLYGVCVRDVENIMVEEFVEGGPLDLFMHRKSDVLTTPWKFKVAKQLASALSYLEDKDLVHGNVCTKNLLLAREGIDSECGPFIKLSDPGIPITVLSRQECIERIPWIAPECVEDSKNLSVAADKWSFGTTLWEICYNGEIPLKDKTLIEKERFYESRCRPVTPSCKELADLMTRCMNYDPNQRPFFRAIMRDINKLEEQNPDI
Experimental: as §1, §2

PAK6 = target: T5, PAK6 (Homo sapiens, UniProt Q9NQU5); settings: PAK6, 1 μM; read-out: % control
T5 construct: purchased Eurofins scanMax kinase panel
T5 sequence (Q9NQU5 whole entry): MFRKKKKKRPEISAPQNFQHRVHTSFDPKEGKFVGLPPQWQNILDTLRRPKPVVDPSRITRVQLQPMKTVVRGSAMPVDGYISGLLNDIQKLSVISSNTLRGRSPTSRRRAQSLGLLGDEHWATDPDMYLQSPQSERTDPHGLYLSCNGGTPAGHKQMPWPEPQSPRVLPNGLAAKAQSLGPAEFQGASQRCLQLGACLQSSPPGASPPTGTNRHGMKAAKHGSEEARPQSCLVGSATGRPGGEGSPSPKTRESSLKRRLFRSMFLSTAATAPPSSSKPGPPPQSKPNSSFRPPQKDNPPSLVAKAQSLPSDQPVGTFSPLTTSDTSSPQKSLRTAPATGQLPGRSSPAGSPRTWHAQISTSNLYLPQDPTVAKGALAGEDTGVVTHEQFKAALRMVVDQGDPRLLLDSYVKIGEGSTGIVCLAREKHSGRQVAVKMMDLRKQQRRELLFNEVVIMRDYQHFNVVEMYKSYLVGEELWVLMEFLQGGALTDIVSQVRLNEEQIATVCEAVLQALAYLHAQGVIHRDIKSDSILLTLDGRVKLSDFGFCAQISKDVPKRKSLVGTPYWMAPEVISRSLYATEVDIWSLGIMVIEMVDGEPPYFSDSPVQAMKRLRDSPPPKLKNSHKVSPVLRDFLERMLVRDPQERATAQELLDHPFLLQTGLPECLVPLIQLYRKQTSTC
Experimental: as §1, §2

[2] = target: T6, ABL1(M351T)-phosphorylated (Homo sapiens, UniProt P00519, M351T); settings: read-out: % control
T6 construct: purchased Eurofins
Experimental: as §1, §2

DYRK2 = target: T7, DYRK2 (Homo sapiens, UniProt Q92630); settings: DYRK2, 1 μM; read-out: % control
T7 construct: purchased Eurofins scanMax® kinase panel
Experimental: as §1, §2

RET(V804L) = target: T8, RET(V804L) (Homo sapiens, UniProt P07949, V804L); settings: read-out: % control
T8 construct: purchased Eurofins scanMax kinase panel
Experimental: as §1, §2

ARK5 = target: T9, ARK5 (Homo sapiens, UniProt O60285); settings: ARK5, 1 μM; read-out: % control
T9 construct: purchased Eurofins
T9 sequence (O60285 whole entry): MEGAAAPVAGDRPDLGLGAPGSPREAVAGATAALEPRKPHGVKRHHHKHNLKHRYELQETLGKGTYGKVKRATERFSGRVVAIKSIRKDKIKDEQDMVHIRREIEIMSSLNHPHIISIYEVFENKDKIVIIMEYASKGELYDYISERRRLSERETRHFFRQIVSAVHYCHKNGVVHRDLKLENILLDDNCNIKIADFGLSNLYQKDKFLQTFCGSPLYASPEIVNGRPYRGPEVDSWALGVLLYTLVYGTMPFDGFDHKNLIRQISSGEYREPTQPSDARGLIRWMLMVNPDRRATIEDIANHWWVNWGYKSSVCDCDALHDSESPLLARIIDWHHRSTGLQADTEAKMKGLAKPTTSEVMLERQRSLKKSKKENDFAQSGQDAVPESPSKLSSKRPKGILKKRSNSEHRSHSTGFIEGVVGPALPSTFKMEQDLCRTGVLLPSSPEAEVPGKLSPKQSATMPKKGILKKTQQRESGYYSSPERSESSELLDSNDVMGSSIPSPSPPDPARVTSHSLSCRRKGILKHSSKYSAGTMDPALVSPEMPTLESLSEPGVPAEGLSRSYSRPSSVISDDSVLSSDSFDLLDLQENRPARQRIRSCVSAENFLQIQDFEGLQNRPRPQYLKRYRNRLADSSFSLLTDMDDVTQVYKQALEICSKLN
Experimental: as §1, §2

ERK4 = target: T10, ERK4 (Homo sapiens, UniProt P31152); settings: ERK4, 1 μM; read-out: % control
T10 construct: purchased Eurofins scanMax® kinase panel
T10 sequence (P31152 whole entry): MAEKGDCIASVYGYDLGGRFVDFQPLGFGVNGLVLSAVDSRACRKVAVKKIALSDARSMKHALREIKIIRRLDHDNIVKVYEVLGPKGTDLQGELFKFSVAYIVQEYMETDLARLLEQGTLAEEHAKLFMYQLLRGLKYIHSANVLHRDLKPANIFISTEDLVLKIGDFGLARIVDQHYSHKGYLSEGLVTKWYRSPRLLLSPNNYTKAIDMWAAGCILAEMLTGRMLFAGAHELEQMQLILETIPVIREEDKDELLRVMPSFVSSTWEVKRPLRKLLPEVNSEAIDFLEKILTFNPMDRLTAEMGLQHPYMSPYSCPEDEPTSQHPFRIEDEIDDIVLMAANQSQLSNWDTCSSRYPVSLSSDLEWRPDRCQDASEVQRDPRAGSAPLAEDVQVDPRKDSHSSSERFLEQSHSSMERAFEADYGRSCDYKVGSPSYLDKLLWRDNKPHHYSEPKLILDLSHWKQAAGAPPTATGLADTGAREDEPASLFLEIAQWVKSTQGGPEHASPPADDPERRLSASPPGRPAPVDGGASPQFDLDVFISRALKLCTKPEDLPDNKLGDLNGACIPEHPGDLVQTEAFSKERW
Experimental: as §1, §2

YES1 = target: T11, YES1 (Homo sapiens, UniProt P07947); settings: YES1, 1 μM; read-out: % control
T11 construct: purchased Eurofins scanMax kinase panel
Experimental: as §1, §2

AURKA = target: T12, AURKA (Homo sapiens, UniProt O14965); settings: read-out: % control
T12 construct: purchased Eurofins
Experimental: as §1, §2

PAK2 = target: T13, PAK2 (Homo sapiens, UniProt Q13177); settings: PAK2, 1 μM; read-out: % control
T13 construct: purchased Eurofins scanMax kinase panel
Experimental: as §1, §2

ROCK2 = target: T14, ROCK2 (Homo sapiens, UniProt O75116); settings: ROCK2, 1 μM; read-out: % control
T14 construct: purchased Eurofins scanMax kinase panel
Experimental: as §1, §2

[3] = target: T15, ABL1(H396P)-phosphorylated (Homo sapiens, UniProt P00519, H396P); settings: read-out: % control
T15 construct: purchased Eurofins
Experimental: as §1, §2

MAP3K15 = target: T16, MAP3K15 (Homo sapiens, UniProt Q6ZN16); settings: MAP3K15, 1 μM; read-out: % control
T16 construct: purchased Eurofins
Experimental: as §1, §2

PAK7 = target: T17, PAK7 (Homo sapiens, UniProt Q9P286); settings: PAK7, 1 μM; read-out: % control
T17 construct: purchased Eurofins scanMax kinase panel
Experimental: as §1, §2

CDK4-cycllinDl = target: T18, CDK4-cycllinDl (Homo sapiens, UniProt P11802); settings: read-out: % control
T18 construct: purchased Eurofins
Experimental: as §1, §2

PAK4 = target: T19, PAK4 (Homo sapiens, UniProt O96013); settings: PAK4, 1 μM; read-out: % control
T19 construct: purchased Eurofins scanMax kinase panel
Experimental: as §1, §2

AURKC = target: T20, AURKC (Homo sapiens, UniProt Q9UQB9); settings: read-out: % control
T20 construct: purchased Eurofins
T20 sequence (Q9UQB9 whole entry): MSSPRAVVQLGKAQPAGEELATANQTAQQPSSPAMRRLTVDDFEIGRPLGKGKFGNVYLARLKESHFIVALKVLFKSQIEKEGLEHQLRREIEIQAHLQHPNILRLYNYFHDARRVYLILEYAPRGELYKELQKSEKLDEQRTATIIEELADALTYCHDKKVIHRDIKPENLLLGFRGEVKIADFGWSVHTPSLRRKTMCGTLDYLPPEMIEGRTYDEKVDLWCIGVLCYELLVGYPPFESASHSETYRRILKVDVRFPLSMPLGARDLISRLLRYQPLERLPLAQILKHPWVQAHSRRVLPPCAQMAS
Experimental: as §1, §2

RET(V804M) = target: T21, RET(V804M) (Homo sapiens, UniProt P07949, V804M); settings: read-out: % control
T21 construct: purchased Eurofins scanMax kinase panel
Experimental: as §1, §2

IRAK4 = target: T22, IRAK4 (Homo sapiens, UniProt Q9NWZ3); settings: IRAK4, 1 μM; read-out: % control
T22 construct: purchased Eurofins
Experimental: as §1, §2

KIT(D816H) = target: T23, KIT(D816H) (Homo sapiens, UniProt P10721, D816H); settings: read-out: % control
T23 construct: purchased Eurofins
T23 sequence (P10721 26-976 D816H): as the sequence (P10721 26-976) above, with D791H counted along it
Experimental: as §1, §2

[4] = target: T24, JAKI(JH1domain-catalytic) (Homo sapiens, UniProt P23458); settings: read-out: % control
T24 construct: JAKI(JH1domain-catalytic); purchased Eurofins
T24 sequence (P23458 875-1153 limits assumed): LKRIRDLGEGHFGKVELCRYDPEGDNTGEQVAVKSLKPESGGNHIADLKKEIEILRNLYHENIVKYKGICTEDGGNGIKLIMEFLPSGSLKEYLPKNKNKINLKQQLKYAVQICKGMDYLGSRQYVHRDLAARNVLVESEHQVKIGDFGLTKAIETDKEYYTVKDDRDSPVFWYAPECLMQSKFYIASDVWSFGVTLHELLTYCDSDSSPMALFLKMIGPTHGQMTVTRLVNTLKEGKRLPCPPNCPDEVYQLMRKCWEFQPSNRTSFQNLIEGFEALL
Experimental: as §1, §2

HIPK4 = target: T25, HIPK4 (Homo sapiens, UniProt Q8NE63); settings: HIPK4, 1 μM; read-out: % control
T25 construct: purchased Eurofins
Experimental: as §1, §2

TRKC = target: T26, TRKC (Homo sapiens, UniProt Q16288); settings: read-out: % control
T26 construct: purchased Eurofins scanMax kinase panel
Experimental: as §1, §2

RET(M918T) = target: T27, RET(M918T) (Homo sapiens, UniProt P07949, M918T); settings: read-out: % control
T27 construct: purchased Eurofins scanMax kinase panel
Experimental: as §1, §2

PIM1 = target: T28, PIM1 (Homo sapiens, UniProt P11309); settings: PIM1, 1 μM; read-out: % control
T28 construct: purchased Eurofins scanMax kinase panel
Experimental: as §1, §2

PAKI = target: T29, PAKI (Homo sapiens, UniProt Q13153); settings: read-out: % control
T29 construct: purchased Eurofins scanMax kinase panel
T29 sequence (Q13153 whole entry): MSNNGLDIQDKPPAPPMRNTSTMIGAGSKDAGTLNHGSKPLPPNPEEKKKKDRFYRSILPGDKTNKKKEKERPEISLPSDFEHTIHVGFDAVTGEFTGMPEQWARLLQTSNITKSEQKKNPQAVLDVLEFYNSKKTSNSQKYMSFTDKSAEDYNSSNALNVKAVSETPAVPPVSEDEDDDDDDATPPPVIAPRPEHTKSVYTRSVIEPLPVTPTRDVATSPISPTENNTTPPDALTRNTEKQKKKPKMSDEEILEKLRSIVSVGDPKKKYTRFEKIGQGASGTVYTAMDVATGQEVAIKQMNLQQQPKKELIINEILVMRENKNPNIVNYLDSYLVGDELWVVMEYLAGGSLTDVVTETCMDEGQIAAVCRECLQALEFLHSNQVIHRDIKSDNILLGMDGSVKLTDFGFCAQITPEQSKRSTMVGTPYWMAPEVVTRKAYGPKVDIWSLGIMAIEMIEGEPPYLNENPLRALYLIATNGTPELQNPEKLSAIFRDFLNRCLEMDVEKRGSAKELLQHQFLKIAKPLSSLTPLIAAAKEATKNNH
Experimental: as §1, §2

GSK3A = target: T30, GSK3A (Homo sapiens, UniProt P49840); settings: read-out: % control
T30 construct: purchased Eurofins scanMax® kinase panel
T30 sequence (P49840 whole entry): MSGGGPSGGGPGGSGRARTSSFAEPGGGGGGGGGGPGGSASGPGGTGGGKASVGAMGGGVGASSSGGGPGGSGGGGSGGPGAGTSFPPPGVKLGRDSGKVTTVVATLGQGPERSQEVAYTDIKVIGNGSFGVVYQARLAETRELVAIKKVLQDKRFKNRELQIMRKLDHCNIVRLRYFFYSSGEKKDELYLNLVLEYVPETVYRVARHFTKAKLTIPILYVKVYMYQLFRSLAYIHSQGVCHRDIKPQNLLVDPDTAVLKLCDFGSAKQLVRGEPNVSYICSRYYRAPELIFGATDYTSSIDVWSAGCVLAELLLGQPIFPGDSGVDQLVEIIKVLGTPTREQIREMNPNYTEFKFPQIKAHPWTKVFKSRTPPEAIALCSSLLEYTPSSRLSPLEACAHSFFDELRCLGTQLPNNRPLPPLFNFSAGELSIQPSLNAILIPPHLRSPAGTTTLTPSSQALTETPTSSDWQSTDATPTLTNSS
Experimental: as §1, §2

[5] = target: T31, ABL1(Q252H)-phosphorylated (Homo sapiens, UniProt P00519, Q252H); settings: read-out: % control
T31 construct: purchased Eurofins
Experimental: as §1, §2

MAP3K1 = target: T32, MAP3K1 (Homo sapiens, UniProt Q13233); settings: MAP3K1, 1 μM; read-out: % control
T32 construct: purchased Eurofins
Experimental: as §1, §2

KIT(V559D, T670I) = target: T33, KIT(V559D, T670I) (Homo sapiens, UniProt P10721, T670I/V559D); settings: read-out: % control
T33 construct: purchased Eurofins
T33 sequence (P10721 26-976 V559D/T670I): as the sequence (P10721 26-976) above, with V534D, T645I counted along it
Experimental: as §1, §2

Measured: remaining binding at 1 µM

COc1ccc2nc(-c3n[nH]c4ccc(C(=O)N[C@H]5CC[C@H](N)C5)cc34)[nH]c2c1 [Example 32, N-((1S,3S)-3-aminocyclopentyl)-3-(6-methoxy-1H-benzo[d]imidazol-2-yl)-1H-indazole-5-carboxamide]
< 10%: all assays above
